According to patent US20210238177A1, “CRYSTALLINE FORMS OF 3-((1R,5S,9r)-9-ETHOXY-3-AZABICYCLO[3.3.1]NONAN-9-YL)-BENZAMIDE AND SALT FORMS THEREOF” (Alkermes, Inc., priority 2020, published 2021):

Experiment: Dynamic Vapor Sorption (DVS) with PXRD of the material after DVS
Format: physicochemical
Method: DVS analysis was conducted using a TA Instruments TGA Q5000 SA. DVS was run at 25 degrees C. The sample was pre-dried at 25 degrees C. and 0% relative humidity (% RH) until the dm/dt was 0.01% for up to 300 minutes. Adsorption and desorption isotherms were measured by ramping the humidity from 0% RH to 90% RH to 0% RH at 10% RH step intervals with a stability criterion of dm/dt=0.01% or 300 minutes unless otherwise noted. Data analysis was performed using Universal Analysis 2000 Version 4.5 A.

Row | SMILES | relative stability of HCl salt solid forms (conclusion based on the DVS experiment) | water (DVS weight gain) (25 degrees C, first cycle, up to 50% RH) | solid form after DVS (PXRD pattern) (after two cycle DVS, 0% RH to 90% RH to 0% RH, 25 degrees C)
1 | CCOC1(c2cccc(C(N)=O)c2)C2CCCC1CNC2.Cl [hydrochloride Form B, 3-((1R,5S,9r-9-ethoxy-3-azabicyclo-[3.3.1]nonan-9-yl)-benzamide hydrochloride] | most stable HCl salt solid form | – | –
2 | CCOC1(c2cccc(C(N)=O)c2)C2CCCC1CNC2.Cl [hydrochloride Form D, 3-((1R,5S,9r-9-ethoxy-3-azabicyclo-[3.3.1]nonan-9-yl)-benzamide hydrochloride] | – | approximately 0.5% | consistent with hydrochloride Form B
